Residue numbers refer to the chain shown, from its start.
Columns and labels:
huCD19CAR-EBD(4OHT) = experiment: Anti-CD3zeta western blot with band quantification; type: cell-based; details: 500 nM, 24 hr incubation, vs 0 nM
Description: FIG. 26. Anti-zeta Western Blot evaluating huCD19CAR-EBD(4OHT) with differing Glycine linkers in 0 nM and 500 nM of 4OHT OR (Z)-endoxifen. Protein processing and expression of huCD19CAR-EBD with different linkers between the CAR and the EBD was evaluated using an anti-CD3zeta western blot analysis. Whole cell lysates were made for the huCD19CAR-EBD(4OHT) T cell lines with either a 1Glycline, 2Glycine or 3Glycine linker between the CAR and EBD domains in 0 nM and 500 nM 4OHT/(Z)-endoxifen drug conditions following a 24 hr incubation. Whole cell lysates were also made for the Mock T cell line and the CAR alone T cell line under the same conditions. The western blot was imaged and analyzed on the LiCOR Odyssey. Additionally, protein band quantification was performed using the LiCOR Odyssey. CAR zeta chain expression is observed for all CAR-1/2/3Glylinker-EBD lines in both the no drug and maximum drug conditions.

B7H3CAR-3Gly-EBD(4OHT) [1] = target: T1, B7H3CAR-3Gly-EBD(4OHT) (Homo sapiens, UniProt P03372, G400V/L544A/M543A); experiment: Chromium release assay, specific cell lysis; type: cell-based
T1 construct: expressed in transfected cells; T cells by b52 and b55
T1 sequence (P03372 282-595 G400V/M543A/L544A): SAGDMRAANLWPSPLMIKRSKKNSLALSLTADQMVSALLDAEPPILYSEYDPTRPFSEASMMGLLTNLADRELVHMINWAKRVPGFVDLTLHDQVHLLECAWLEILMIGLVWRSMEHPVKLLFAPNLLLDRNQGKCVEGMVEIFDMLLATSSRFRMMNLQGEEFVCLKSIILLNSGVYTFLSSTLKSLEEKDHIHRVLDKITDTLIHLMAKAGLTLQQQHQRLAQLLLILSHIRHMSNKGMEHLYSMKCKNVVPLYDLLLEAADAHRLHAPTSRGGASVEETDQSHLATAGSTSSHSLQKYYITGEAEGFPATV
Description: FIG. 18. […] Specific cell lysis was evaluated using a chromium release assay. […] Following the 4 hr incubation the Perkin Elmer TopCount was used to quantify the amount of Cr51 released into each well as tumor lysis occurred.

B7H3CAR-3Gly-EBD(4OHT) [2] = target: T1, B7H3CAR-3Gly-EBD(4OHT); experiment: Meso Scale Diagnostic cytokine release assay; type: cell-based; details: 24 hr drug culture 0-500 nM, 24 hr co-incubation with tumor lines
Description: FIGS. 19A, 19B. […] (20A and 20B) Cytokine release was evaluated using a Meso Scale Diagnostic assay. […] Following the 24 hr incubation the supernatant from each co-incubation was collected and run on the MESO QuickPlex SQ 120 instrument to ascertain the amount of cytokine released.

EBD(ES8) = target: T2, EBD(ES8) (Homo sapiens, UniProt P03372, E353A); experiment: CD107a activation assay (flow cytometry MFI); type: cell-based; details: for CD107a response of EBD(ES8) to drug: 24 hr preconditioning, 4 hours co-culture
T2 sequence (P03372 282-595 E353A): T1 sequence (P03372 282-595 G400V/M543A/L544A) with E72A, V119G, A262M, A263L
Description: FIGS. 28A, 28B. (28A) CD107a activation assay: huCD19CAR-EBD(4OHT) linker variants vs K562+CD19t. […] To achieve this, T cells (including mock and constitutively active CAR controls) were preconditioned with target drug concentration(s) for 24 hrs, then exposed to a tumor line expressing their target antigen (CD19 or B7H3). After 4 hours of co-culture with target tumors at various drug concentrations, the T cells were assessed for a) activation and degranulation by staining for CD107a and b) cell surface CAR-EBD by staining for human scFv (which works for both B7H3CAR and huCD19CAR), then running on flow cytometry. MFI (median fluorescence intensity) was determined for each stain on each sample under each condition and plotted on a log scale of drug concentration. EC10 and EC90 (effective concentration 10% and 90%) were calculated in Graphpad Prism for CD107a expression and function as estimates for the drug concentration required for each construct to turn “on” or “off”. Positive and negative controls for each CAR are presented in the bar graph. […] EBD(4OHT) responds to 4-OHT and (Z)-endoxifen, but not to CMP8 or ES8. The responsiveness of degranulation to target antigen in the presence of inducer molecule is largely similar between the Gly linker variants. EBD(4OHT) is very sensitive to its intended inducer molecules, beginning to activate (EC10) at single nanomolar concentrations and becoming fully activated (EC90) at double digit nanomolar concentrations. […] Both EBD(CMP8) and EBD(ES8) respond to 4OHT.

B7H3 EBD(CMP8) CAR = target: T3, B7H3 EBD(CMP8) CAR (Homo sapiens, UniProt P03372, G521R/L384M/M421G); experiment: Jurkat iSynPro eGFP:ffluc reporter assay (GFP by flow cytometry); type: cell-based
T3 construct: expressed in transfected cells; host or cells: clonal Jurkat iSynPro eGFP:ffluc reporter cell line (transduced)
T3 sequence (P03372 282-595 L384M/M421G/G521R): T1 sequence (P03372 282-595 G400V/M543A/L544A) with L103M, V119G, M140G, G240R, A262M, A263L
Description: FIG. 11. Design of B7H3 CAR EBD mutant study. […] Jurkat iSynPro lines included cJ10792: Jurkat iSynPro-GFP:ffluc; cJ13093: Jurkat iSynPro-GFP:ffluc+B7H3 CAR; cJ13094: Jurkat iSynPro-GFP:ffluc+B7H3 CAR EBD (4-OHT); and cJ13095: Jurkat iSynPro-GFP:ffluc+B7H3 CAR EBD (CMP8) with a K562 parental target. 4-OHT and CMP8 concentrations of 0 nM, 500 nM and 1000 nM were tested for each cell line.
FIG. 16. Design of activation curve study. The objective of the study was to examine activation curves of CAR EBD Jurkat iSynPro lines in an increasing presence of 4-OHT, (Z)-endoxifen, or CMP8.
FIG. 9 (top) depicts a schematic of Jurkat iSynPro eGFP:ffluc reporter cells. Jurkat iSynPro eGFP:ffluc reporter cells feature a Jurkat cell line lentivirally transduced to stably express a inducible synthetic promoter (iSynPro WO2018213332A1) regulating the expression of an enhanced green fluorescent protein (eGFP) fused to bioluminescent reporter firefly luciferase (ffluc). This line was then clonally selected by limiting dilution. […]
Jurkat iSynPro eGFP:ffluc assays are also depicted in FIG. 9 (bottom). […] At the 24 hr timepoint, cells were collected and evaluated by flow cytometry. Cells were initially stained for CD33 to gate out target cell lines before they were evaluated for GFP expression by positivity and/or mean fluorescence intensity (MFI). […]

[3] = target: T4, B7H3CAR-3Gly-EBD variants (Homo sapiens, UniProt P03372, G521R/L384M/M421G); details: B7H3CAR-3Gly-EBD(CMP8) vs K562+mCherry, drug added at 24 hrs
T4 sequence (P03372 282-595 L384M/M421G/G521R): T1 sequence (P03372 282-595 G400V/M543A/L544A) with L103M, V119G, M140G, G240R, A262M, A263L
Description: (31A) Incucyte Cytotoxicity Assay: B7H3CAR-3Gly-EBD variants. CD4 and CD8 T cells (mixed at a 1:1 ratio) expressing a either B7H3CAR-3Gly-EBD(4OHT), B7H3CAR-3Gly-EBD(CMP8), or B7H3CAR-3Gly-EBD(ES8) were either preincubated for 24 hrs with 500 nM inducer drug or not preincubated. These T cells were subsequently plated with CAR-target expressing tumor lines (K562, and/or Be2) constitutively expressing mCherry (for detection and quantification). […] Plates were placed inside of an Incucyte and imaged every 3-4 hours for several days. mCherry signal was then quantified and plotted as a function of time. […]
(32A-32C) CD4 and CD8 T cells (mixed at a 1:1 ratio) expressing either B7H3CAR-3Gly-EBD(4OHT), B7H3CAR-3Gly-EBD(CMP8), or B7H3CAR-3Gly-EBD(ES8) (were either preincubated for 24 hrs with 500 nM inducer drug or not preincubated (B7H3CAR-3Gly-EBD(4OHT) received 500 nM 4OHT, B7H3CAR-3Gly-EBD(CMP8) received 500 nM CMP8, B7H3CAR-3Gly-EBD(ES8) received 500 nM ES8). These T cells were subsequently plated with CAR-target expressing tumor lines (K562, and/or Be2) constitutively expressing mCherry (for detection and quantification). Tumors were plated at 10,000 per well, and co-culture was performed at a 4:1 ratio (T cell:tumor cell) with or without the appropriate drug at 500 nM. […]

## CC/C(=C(\c1ccc(O)cc1)c1ccc(OCCN(C)C)cc1)c1ccccc1 [4-OHT, 4-hydroxytamoxifen]
huCD19CAR-EBD(4OHT)
  increase in CAR-EBD protein expression (zeta chain band quantification): ~3 fold

## CC/C(=C(\c1ccc(O)cc1)c1ccc(OCCNC)cc1)c1ccccc1 [(Z)-endoxifen]
huCD19CAR-EBD(4OHT)
  increase in CAR-EBD protein expression (zeta chain band quantification): ~3 fold

## O=C1CCC2(Cc3ccc(Cl)cc3)Cc3cc(O)ccc3C2=C1c1ccc(OCCN2CCCCC2)cc1 (centres unmarked) [CMP8]
B7H3CAR-3Gly-EBD(4OHT) [1]; 500 nM
  specific lysis: 0%
B7H3CAR-3Gly-EBD(4OHT) [1]; 24 hr drug culture 0-500 nM, 4 hr co-incubation with Cr-51 tumor line
  regulation of CAR activity (specific cell lysis): is not regulated by
B7H3CAR-3Gly-EBD(4OHT) [2]
  regulation of CAR activity (cytokine release): is not regulated by
EBD(ES8)
  CD107a response of EBD(ES8) to drug: does not respond to
B7H3 EBD(CMP8) CAR; 0.49 nM of drug
  induction of expression at lowest drug level: still observed
B7H3 EBD(CMP8) CAR; K562 target, 24 hr
  response of EBD(CMP8) mutant (GFP induction): response
[3]
  change in tumor growth kinetics once activated: immediate

## C[C@]12CC[C@@H]3c4ccc(/C=C/C(=O)O)cc4CC[C@H]3[C@@H]1CC[C@@H]2O [ES8]
EBD(ES8)
  CD107a response of EBD(ES8) to drug: very sensitive to induction
EBD(ES8); CD107a
  maximum magnitude of induction: less than its induction with 4OHT
